{"source": "patent EP0522944A2", "about": "“Use of 3-(3-pyridinyl)-1H,3H-pyrrolo(1,2-c)thiazole-7-carboxamide for the treatment of retroviral infections” (RHONE-POULENC RORER S.A., priority 1991, dated 1993)", "format_in_all_cases": "cell-based", "key": {"virus HIV-1 [1]": {"tested_on": "virus HIV-1", "experiment": "Duration of action: pretreatment of U1 cells with the product before stimulation by TNF, PMA or GM-CSF + IL-6, reverse transcriptase production (second series)", "text": "(§1) On utilise des lignées cellulaires U1 obtenues après infection de la lignée promonocytaire, U937, par le virus HIV-1 et sélectionnée le selon la capacité à augmenter la production virale en réponse au Phorbol My- ristate Acétate (PMA), au TNF et à d'autres médiateurs [Folks et al., Science, 238, 800 (1987)]. L'activité de la reverse transcriptase est utilisée comme un indicateur de la production virale. On analyse ainsi l'effet de concentrations croissantes du produit à étudier sur des lignées cellulaires stimulées.\nLes cultures cellulaires sont prélévées en phase de croissance exponantielle et remises en culture à raison d'une concentration finale de 2x105 cellules/ml, en présence de différentes concentrations du produit à étudier. […] Chaque essai est fait en double, excepté les contrôles qui sont faits en quadruple. Chaque jour suivant, une fraction de surnageant des cultures est prélevée, et congelée en vue de la mesure de la reverse transcriptase. Les cellules sont nourries si nécessaire, avec du milieu frais ne contenant ni produit à étudier, ni activateur.\n(§2) La mesure de l'activité de la reverse transcriptase est faite par les techniques connues, en double exemplaire [Strebel et al., Nature, 328, 728 (1987)].\nDans une seconde série d'essais, la durée d'action du (+) (pyridyl-3)-3 1H,3H-pyrrolo[1,2-c]thiazolecarboxamide-7 a été testée."}, "cellules U1": {"tested_on": "cellules U1", "experiment": "Viability of the U1 cells in presence of the product", "settings": "whatever the concentration used (0,1 to 100 µM)", "method": "(§3) Les cultures cellulaires sont prélévées en phase de croissance exponantielle et remises en culture à raison d'une concentration finale de 2x105 cellules/ml, en présence de différentes concentrations du produit à étudier. 30 minutes après, l'ensemble des cultures est additionné de TNFa ou de GM-CSF (Granulocyte Macrophage Colony Stimulating Factor) plus 11-6 (Interleukine-6). Chaque essai est fait en double, excepté les contrôles qui sont faits en quadruple. Chaque jour suivant, une fraction de surnageant des cultures est prélevée, et congelée en vue de la mesure de la reverse transcriptase. Les cellules sont nourries si nécessaire, avec du milieu frais ne contenant ni produit à étudier, ni activateur."}, "virus HIV-1 [2]": {"tested_on": "virus HIV-1", "experiment": "Reverse transcriptase activity as indicator of viral production in chronically HIV-1 infected U1 cells stimulated with TNFa or GM-CSF + IL-6 (first series)", "text": "Les effets du (+) (pyridyl-3)-3 1H,3H-pyrrolo[1,2-c] thiazolecarboxamide-7 sur l'induction du virus HIV-1 ont été étudiés sur des lignées cellulaires chroniquement infectées.\nas §1, §3, §2\nLe (+) (pyridyl-3)-3 1 H,3H-pyrrolo[1,2-c]thiazole carboxamide-7 est étudié aux concentrations de 100, 10, 1 et 0,1 µM.\nLe TNFa est additionné à raison de 100, 10 ou 1 Unités/ml. Le GM-CSF + 11-6 est additionné à raison de 100 U/mi. Certains contrôles ne recoivent pas l'activateur. D'autres contrôles ne reçoivent pas le produit à étudier. D'autres ne reçoivent ni le produit ni l'activateur."}}, "data": [{"smiles": "NC(=O)c1ccn2c1CSC2c1cccnc1", "note": "(single isomer, unassigned; (+)) [produit, (+) (pyridyl-3)-3 1H,3H-pyrrolo[1,2-c]thiazole carboxamide-7]", "values": [{"measurement": "Production de Reverse Transcriptase Coups par minute (cpm)", "setting": "virus HIV-1 [1]; Tableau I, U1 cells + product 100µM, no stimulation, contact time 0,5 h", "result": "<100", "unit": "cpm"}, {"measurement": "Production de Reverse Transcriptase Coups par minute (cpm)", "setting": "virus HIV-1 [1]; Tableau I, U1 cells + product 100µM, no stimulation, contact time 2 h", "result": "<100", "unit": "cpm"}, {"measurement": "Production de Reverse Transcriptase Coups par minute (cpm)", "setting": "virus HIV-1 [1]; Tableau I, U1 cells + product 100µM, no stimulation, contact time 7 h", "result": "<100", "unit": "cpm"}, {"measurement": "Production de Reverse Transcriptase Coups par minute (cpm)", "setting": "virus HIV-1 [1]; Tableau I, U1 cells + product 100µM, no stimulation, contact time 10 h", "result": "<100", "unit": "cpm"}, {"measurement": "Production de Reverse Transcriptase Coups par minute (cpm)", "setting": "virus HIV-1 [1]; Tableau II, U1 cells + product 100µM, no stimulation, contact time 0,5 h", "result": "env.100 cpm"}, {"measurement": "Production de Reverse Transcriptase Coups par minute (cpm)", "setting": "virus HIV-1 [1]; Tableau II, U1 cells + product 100µM, no stimulation, contact time 2 h", "result": "env.100 cpm"}, {"measurement": "Production de Reverse Transcriptase Coups par minute (cpm)", "setting": "virus HIV-1 [1]; Tableau II, U1 cells + product 100µM, no stimulation, contact time 7 h", "result": "env.100 cpm"}, {"measurement": "Production de Reverse Transcriptase Coups par minute (cpm)", "setting": "virus HIV-1 [1]; Tableau II, U1 cells + product 100µM, no stimulation, contact time 10 h", "result": "<100", "unit": "cpm"}, {"measurement": "Production de Reverse Transcriptase Coups par minute (cpm)", "setting": "virus HIV-1 [1]; Tableau III, U1 cells + product 100µM, no stimulation, contact time 0,5 h", "result": 180, "unit": "cpm"}, {"measurement": "Production de Reverse Transcriptase Coups par minute (cpm)", "setting": "virus HIV-1 [1]; Tableau III, U1 cells + product 100µM, no stimulation, contact time 2 h", "result": 150, "unit": "cpm"}, {"measurement": "Production de Reverse Transcriptase Coups par minute (cpm)", "setting": "virus HIV-1 [1]; Tableau III, U1 cells + product 100µM, no stimulation, contact time 7 h", "result": 180, "unit": "cpm"}, {"measurement": "Production de Reverse Transcriptase Coups par minute (cpm)", "setting": "virus HIV-1 [1]; Tableau III, U1 cells + product 100µM, no stimulation, contact time 10 h", "result": 160, "unit": "cpm"}, {"measurement": "Production de Reverse Transcriptase Coups par minute (cpm)", "setting": "virus HIV-1 [1]; U1 cells + product 100µM + GM-CSF (100U) + IL6 (100U), contact time before stimulation 0,5 h", "result": 200, "unit": "cpm"}, {"measurement": "Production de Reverse Transcriptase Coups par minute (cpm)", "setting": "virus HIV-1 [1]; U1 cells + product 100µM + GM-CSF (100U) + IL6 (100U), contact time before stimulation 2 h", "result": 180, "unit": "cpm"}, {"measurement": "Production de Reverse Transcriptase Coups par minute (cpm)", "setting": "virus HIV-1 [1]; U1 cells + product 100µM + GM-CSF (100U) + IL6 (100U), contact time before stimulation 7 h", "result": 170, "unit": "cpm"}, {"measurement": "Production de Reverse Transcriptase Coups par minute (cpm)", "setting": "virus HIV-1 [1]; U1 cells + product 100µM + GM-CSF (100U) + IL6 (100U), contact time before stimulation 10 h", "result": 180, "unit": "cpm"}, {"measurement": "Production de Reverse Transcriptase Coups par minute (cpm)", "setting": "virus HIV-1 [1]; U1 cells + product 100µM + PMA (10^-7), contact time before stimulation 0,5 h", "result": 4700, "unit": "cpm"}, {"measurement": "Production de Reverse Transcriptase Coups par minute (cpm)", "setting": "virus HIV-1 [1]; U1 cells + product 100µM + PMA (10^-7), contact time before stimulation 2 h", "result": 1900, "unit": "cpm"}, {"measurement": "Production de Reverse Transcriptase Coups par minute (cpm)", "setting": "virus HIV-1 [1]; U1 cells + product 100µM + PMA (10^-7), contact time before stimulation 7 h", "result": 1900, "unit": "cpm"}, {"measurement": "Production de Reverse Transcriptase Coups par minute (cpm)", "setting": "virus HIV-1 [1]; U1 cells + product 100µM + PMA (10^-7), contact time before stimulation 10 h", "result": 900, "unit": "cpm"}, {"measurement": "Production de Reverse Transcriptase Coups par minute (cpm)", "setting": "virus HIV-1 [1]; U1 cells + product 100µM + TNFα(100U), contact time before stimulation 0,5 h", "result": 300, "unit": "cpm"}, {"measurement": "Production de Reverse Transcriptase Coups par minute (cpm)", "setting": "virus HIV-1 [1]; U1 cells + product 100µM + TNFα(100U), contact time before stimulation 2 h", "result": 200, "unit": "cpm"}, {"measurement": "Production de Reverse Transcriptase Coups par minute (cpm)", "setting": "virus HIV-1 [1]; U1 cells + product 100µM + TNFα(100U), contact time before stimulation 7 h", "result": 180, "unit": "cpm"}, {"measurement": "Production de Reverse Transcriptase Coups par minute (cpm)", "setting": "virus HIV-1 [1]; U1 cells + product 100µM + TNFα(100U), contact time before stimulation 10 h", "result": "env.100 cpm"}, {"measurement": "effet inhibiteur de la réplication du HIV-1", "setting": "virus HIV-1 [1]; pretreatment 30 minutes to 24 heures before stimulation by TNF, PMA or GM-CSF + II-6", "result": "n'affecte pas l'effet inhibiteur"}, {"measurement": "viabilité des cellules", "setting": "cellules U1", "result": "sans effet"}, {"measurement": "inhibition at 100 µM", "setting": "virus HIV-1 [2]; Human immunodeficiency virus 1, 72 h, U1 cells, 100 Unités/ml TNFa, day 3, product 10-^4M, read-out: diminution de l'activité de la reverse transcriptase", "result": 84, "unit": "%"}, {"measurement": "inhibition at 10 µM", "setting": "virus HIV-1 [2]; Human immunodeficiency virus 1, 72 h, U1 cells, 100 Unités/ml TNFa, day 3, product 10^-5M, read-out: diminution de l'activité de la reverse transcriptase", "result": 50, "unit": "%"}, {"measurement": "diminution de la production virale", "setting": "virus HIV-1 [2]; U1 cells treated with TNFa", "result": "significative et dose-dépendante"}, {"measurement": "action inhibitrice du HIV-1 dans les cellules U1", "setting": "virus HIV-1 [2]; stimulated by GM-CSF + II-6", "result": "significative"}]}]}
